Measured values as given in patent publication US8524634B2, “Seed treatment with combinations of pyrethrins/pyrethroids and clothianidin” (priority 2000, dated 2013).

Key:
Type in all cases: in vivo
black cutworm larvae [1] = assay: Black cutworm feeding damage on corn: lambda-cyhalothrin seed treatment vs tefluthrin soil granular treatments (Reference Example 1); settings: for Plant Defol. 3 DAI / Plant Defol. 7 DAI / Plant Defol. 10 DAI: rating 1=no damage, 10=complete defoliation
Experimental: This example compares the efficacy of seed treatment with lambda-cyhalothrin (CAS #91465-08-6) to soil granular treatments with tefluthrin (CAS #79538-32-2) against feeding damage by black cutworm larvae on shoots and foliage.
(§1) A lambda-cyhalothrin seed treatment formulation was prepared by diluting the WARRIOR® T insecticide (Zeneca Ag Products, Wilmington, Del.), which contains 11.4% lambda-cyhalothrin as the active ingredient, into water as a carrier. This formulation was applied for one minute at room temperature to twenty-five grams of Pioneer corn seed (Cultivar PN3394) in a rotostatic seed treater at a rate of 125 g, 250 g or 500 g active ingredient (Al) to 100 kg seed. The treated seeds were allowed to sit uncapped for four to twenty-four hours before planting.
(§2) Treated and untreated seeds (Pioneer hybrid PN3394) were planted in a soil mix consisting of Dupo silt loam, 30% Perlite, 20% coarse sand (WB-10 grade) in six groups of tubs (20 in. L×15 in. W×8 in. D). Twelve seeds were planted per tub and three tubs were planted for each treatment regimen. Soil applications of FORCE® 3GR, which contains 3% tefluthrin granule as the active ingredient, were used for two sets of tubs containing untreated seeds. The FORCE 3GR was applied either in-furrow or incorporated into a 5 inch band on the soil surface at the time of planting. The tubs were overhead irrigated until the plants were infested with black cutworm larvae.
The rate of application for the FORCE 3GR was reported in units of grams of the active ingredient per hectare (g/ha), while the rate of application of the WARRIOR T to the seeds was reported in units of grams of the active ingredient per 100 kilograms of the seeds (g/100 kg). Although the conversion of one of these units to the other will vary somewhat according to the type of seed that is being used, the size and weight of the seed, and the density of planting that is used—among other things—an approximate conversion for corn seed can be carried out as follows. Assuming a seed application rate of lambda cyhalothrin of, for example, 125 g/100 kg of seed and a planting density of 15 lbs seed/ac, about 14.7 acres can be planted with 100 kg of the seed. This is an effective application rate of about 8.5 g of lambda cyhalthrin per acre. At 2.47 ac/ha, the seed treatment level of 125 g/100 kg is approximately equivalent to a surface banding treatment at about 21 g/ha.
The corn plants were infested at 12 DAP, which corresponds to late growth stage V1 by placing two black cutworm larvae at ¾ instar on the soil surface near the base of the plant. Plants were rated 3, 7 and 10 days after infestation (DAI) for the number of cut plants, as well as damage from leaf feeding. The percent stand reduction due to plant cutting was calculated by dividing the number of cut plants into the number of plants present at infestation. The foliar feeding injury was evaluated using a rating scale of 1=no damage and 10=complete defoliation.

corn plants = assay: Vigor rating of corn plants at 12 DAP as indication of phytotoxicity from seed or soil treatment (Reference Example 1); settings: rating 1 extremely low vigor, 10 highest
Experimental: as §1, §2
At twelve days after planting (DAP) but before infestation, the overall health of each plant was rated by looking at emergence, height and appearance. This vigor rating gives an indication of any phytotoxicity from the seed or soil treatment. A rating of 1 indicates extremely low. vigor while 10 is the highest vigor rating.

black cutworm larvae [2] = assay: Protection of corn plants against black cutworm damage by seed treatment with tefluthrin, clothianidin and combinations; Colby synergy (Example 2); settings: for STAND REDUCTION (% at 10 days): 10 DAI; for Percent of Control: stand reduction as percent of untreated control
Experimental: This example illustrates the efficacy of corn seed treatment with a combination of tefluthrin and clothianidin against plant damage by black cutworm.
Seed treatment formulations were prepared from RAZE® 2.5 FS formulation (available from Wilbur-Ellis Co.) containing 26.8% tefluthrin, and clothianidin, (E)-(N-[(2-chloro-5-thiazolyl)methyl]-N′-methyl-N″-nitroguanidine; CAS Registry number 210880-92-5. In addition, separate seed treatment formulations were prepared from each of the two insecticides alone. Corn seed was prepared and treated as described in Reference Example 1, except that the treatment levels of the active ingredients on the seeds was as shown in Table 3. Treated and untreated seeds were planted in tubs and cultivated as described in Example 1. The tubs were overhead irrigated until the plants were infested with black cutworm larvae.
The corn plants were infested at 12 DAP, as described in Reference Example 1, Plants were rated at 10 days after infestation (DAI) for the number of cut plants. The percent stand reduction due to plant cutting was calculated by dividing the number of cut plants into the number of plants present at infestation.
Whether a combination of insecticides provided synergy in protection against cutworm damage was calculated as described by Colby, Robert. S., in Weeds, 15(1):20-22 (1967). The threshold value (stated as % of control) for synergy of a combination was calculated as =(% of control for treatment A)*(% of control for treatment B)/100(n−1); where n=number of active ingredients in combination. A measured % of control value that is less than the threshold value indicates synergy of the combination. Threshold values for synergy were calculated for each of the combinations of Table 3, and the threshold values for synergy of combinations of the active ingredients at various levels are shown in Table 4.

[3] = seed treatment 125 g/100 kg seed
[4] = seed treatment 250 g/100 kg seed
[5] = seed treatment 500 g/100 kg seed

Cc1c(F)c(F)c(COC(=O)[C@@H]2[C@H](/C=C(\Cl)C(F)(F)F)C2(C)C)c(F)c1F (racemic) [Tefluthrin, (2,3,5,6-tetrafluoro-4-methylphenyl)-methyl-(1 alpha, 3 alpha)-(Z)-(±)-3-(2-chloro-3,3,3-trifluoro-1-propenyl)-2,2-dimethylcyclopropanecarboxylate]
Plant Defol. 3 DAI (black cutworm larvae [1]; banded 30 g/ha (FORCE 3GR)): 1.7
% Stand Reduct'n 7 DAI (black cutworm larvae [1]; banded 30 g/ha (FORCE 3GR)): 0.0%
Plant Defol. 7 DAI (black cutworm larvae [1]; banded 30 g/ha (FORCE 3GR)): 1.7
% Stand Reduct'n 10 DAI (black cutworm larvae [1]; banded 30 g/ha (FORCE 3GR)): 0.0%
Plant Defol. 10 DAI (black cutworm larvae [1]; banded 30 g/ha (FORCE 3GR)): 0.3
% Stand Reduct'n 3 DAI (black cutworm larvae [1]; banded 30 g/ha (FORCE 3GR, 5 inch soil surface band)): 0.0%
Plant Defol. 3 DAI (black cutworm larvae [1]; in-furrow 30 g/ha (FORCE 3GR)): 5.0
% Stand Reduct'n 7 DAI (black cutworm larvae [1]; in-furrow 30 g/ha (FORCE 3GR)): 48.0%
Plant Defol. 7 DAI (black cutworm larvae [1]; in-furrow 30 g/ha (FORCE 3GR)): 6.0
% Stand Reduct'n 10 DAI (black cutworm larvae [1]; in-furrow 30 g/ha (FORCE 3GR)): 48.0%
Plant Defol. 10 DAI (black cutworm larvae [1]; in-furrow 30 g/ha (FORCE 3GR)): 5.3
Vigor at 12 DAP (corn plants; soil granule (FORCE 3GR) banded 30 g/ha): 8.7
Vigor at 12 DAP (corn plants; soil granule (FORCE 3GR) in-furrow 30 g/ha): 9.0

CN/C(=N\[N+](=O)[O-])NCc1cnc(Cl)s1 [Clothianidin, (E)-1-(2-chloro-1,3-thiazol-5-ylmethyl)-3-methyl-2-nitroguanidine]
STAND REDUCTION (% at 10 days) (black cutworm larvae [2]; seed treatment clothianidin 50 gm/100 kg seed): 61.15%
STAND REDUCTION (% at 10 days) (black cutworm larvae [2]; seed treatment clothianidin 100 gm/100 kg seed): 34.38%
Percent of Control (black cutworm larvae [2]; clothianidin 50 gm/100 kg seed): 61.2%
Percent of Control (black cutworm larvae [2]; clothianidin 100 gm/100 kg seed): 34.4%

CC1(C)[C@H](C(=O)O[C@H](C#N)c2cccc(Oc3ccccc3)c2)[C@@H]1/C=C(\Cl)C(F)(F)F [λ-cyhalothrin, [1 alpha (s), 3 alpha(z)]-cyano(3-phenoxyphenyl)methyl-3-(2-chloro-3,3,3-trifluoro-1-propenyl)-2,2-dimethylcyclopropane carboxylate]
Plant Defol. 3 DAI (black cutworm larvae [1]; [3]): 4.3
Plant Defol. 7 DAI (black cutworm larvae [1]; [3]): 5.0
Plant Defol. 10 DAI (black cutworm larvae [1]; [3]): 3.3
% Stand Reduct'n 3 DAI (black cutworm larvae [1]; [4]): 3.0%
Plant Defol. 3 DAI (black cutworm larvae [1]; [4]): 3.7
% Stand Reduct'n 7 DAI (black cutworm larvae [1]; [4]): 3.0%
% Stand Reduct'n 7 DAI (black cutworm larvae [1]; seed treatment 250 g/100 kg seed, listed as lambda-cyhalothrin): 3%
Plant Defol. 7 DAI (black cutworm larvae [1]; [4]): 2.7
% Stand Reduct'n 10 DAI (black cutworm larvae [1]; [4]): 3.0%
Plant Defol. 10 DAI (black cutworm larvae [1]; [4]): 1.7
% Stand Reduct'n 3 DAI (black cutworm larvae [1]; [5]): 0.0%
Plant Defol. 3 DAI (black cutworm larvae [1]; [5]): 2.0
% Stand Reduct'n 7 DAI (black cutworm larvae [1]; [5]): 0.0%
% Stand Reduct'n 7 DAI (black cutworm larvae [1]; seed treatment 500 g/100 kg seed, listed as lambda-cyhalothrin): 0%
Plant Defol. 7 DAI (black cutworm larvae [1]; [5]): 2.3
% Stand Reduct'n 10 DAI (black cutworm larvae [1]; [5]): 0.0%
Plant Defol. 10 DAI (black cutworm larvae [1]; [5]): 1.0
Vigor at 12 DAP (corn plants; seed treatment 125 g AI/100 kg corn seed): 9.0
Vigor at 12 DAP (corn plants; seed treatment 250 g AI/100 kg corn seed): 8.3
Vigor at 12 DAP (corn plants; seed treatment 500 g AI/100 kg corn seed): 8.3
